This data set is described as follows: Solubility of beta-cyclodextrin in water containing ClO2 (slurry test). The following applies: 100 g slurry, 5% beta-cyclodextrin (w/w) in 8000 ppm ClO2 vs ultrapure water, 200 rpm, 3 days. It is filed as physicochemical. The protocol:
However indirect evidence for the complex has been observed. Beta-cyclodextrin has a known solubility in water. If the water contains a guest substance that produces a cyclodextrin complex more soluble than the cyclodextrin alone, more of the cyclodextrin will dissolve into water containing that guest than into plain water. This enhanced solubility has been observed for beta-cyclodextrin in water containing ClO2. Two separate 100 g slurries of beta-cyclodextrin solutions were prepared. […] Both slurries were mixed at 200 rpm for 3 days, at which time the undissolved beta-cyclodextrin was isolated from both solutions and dried for 2 days in a desiccator. […] It is believed, by extension, that ClO2 might form complexes with gamma-cyclodextrin and/or chemically derivatized versions of the natural (alpha- (“α”), beta- (“β”), and gamma- (“γ”)) cyclodextrins. In the case of beta- and/or gamma-cyclodextrin and/or other cyclodextrins having internal cavities larger than that of alpha-cyclodextrin, it might be that the complex(es) formed with ClO2 will incorporate numbers of ClO2 molecules greater than one per cyclodextrin molecule.

SMILES strings stand for the structures.

Turning to `OC[C@H]1O[C@@H]2O[C@H]3[C@H](O)[C@@H](O)[C@@H](O[C@H]4[C@H](O)[C@@H](O)[C@@H](O[C@H]5[C@H](O)[C@@H](O)[C@@H](O[C@H]6[C@H](O)[C@@H](O)[C@@H](O[C@H]7[C@H](O)[C@@H](O)[C@@H](O[C@H]8[C@H](O)[C@@H](O)[C@@H](O[C@H]1[C@H](O)[C@H]2O)O[C@@H]8CO)O[C@@H]7CO)O[C@@H]6CO)O[C@@H]5CO)O[C@@H]4CO)O[C@@H]3CO` [beta-cyclodextrin], the “weight of dried undissolved beta-cyclodextrin from ClO2 containing slurry less than the control slurry” value is 0.32 g.

Values taken from patent US20120100230A1, “Systems, Devices, and/or Methods for Managing Crops” (DHARMA IP, LLC, priority 2010, published 2012).
